The values below are quoted from earlier work in patent US20050142225A1, “Stabilised pharmaceutical compositions on the basis of polyoxyethlated castor oil and method for manufacturing the same” (Pliva-Lachema A.S., priority 2003, published 2005).

Like-named read-outs stand apart in the source and are kept apart here.

On to `CC(=O)O[C@H]1C(=O)[C@@]2(C)[C@H]([C@H](OC(=O)c3ccccc3)[C@]3(O)C[C@H](OC(=O)[C@H](O)[C@@H](NC(=O)c4ccccc4)c4ccccc4)C(C)=C1C3(C)C)[C@]1(OC(C)=O)CO[C@@H]1C[C@@H]2O` [taxol, paclitaxel], for which the content of taxol is, setting by setting: (composition with Cremophor EL, without an acid (pH of 9.1), after 7 days at 40° C.) 86,7%; (composition with pH adjusted by acetic acid to 6.7, after 7 days) 97,5%; (composition with pH adjusted by citric acid to 6.2, after 7 days) 96,6%.
